Reference: patent publication US20200000752A1, “Method for Treating Epilepsy” (Vanderbilt University, priority 2016, published 2020)

Assays:
[1] = target: T1, GABAA α1β2γ2(R82Q) receptors (Homo sapiens, UniProt P14867+P18507+P47870, R82Q); experiment: Patch clamp current amplitude, α1β2γ2(R82Q) receptors in HEK 293T cells; assay type: cell-based; conditions: 1 μm, 4 hrs; GABA 1 mM
T1 construct: expressed in transfected cells; host or cells: HEK 293T
Protocol: (§1) HEK 293T cells were transfected with the human GABAA receptor α1, β2 subunits with the wild-type γ2s, the mutant γ2s(Q390X) or γ2s(R82Q) subunits for 48 hrs. […] A. Lifted whole cells were recorded with the application of GABA 1 mM for 6 sec. Cells was voltage clamped at −50 mV.
(§2) HEK 293T cells were transfected with the human GABAA receptor α1, β2 subunits with the wild-type γ2s, the mutant γ2s(Q390X) or γ2s(R82Q) subunits for 48 hrs.

Scn1a^+/− mouse = experiment: Chronic intermittent dosing toxicity in an Scn1a+/- mouse; assay type: in vivo
Text: An eight-month old male Scn1a^+/− mouse with chronic intermittent dosing was investigated for cortex and hippocampus neuronal survival, which was normal (FIG. 8A).

[2] = system: GABAA receptor α1 and γ2 subunits; experiment: Surface and total GABAA receptor subunit expression in Gabrg2+/Q390X mice; assay type: in vivo, mouse
Protocol: As shown in FIG. 14A upper panel, the surface proteins (FIG. 14A) from the live mouse brain slices were biotinylated and analyzed by SDS-PAGE and immunoblotted with anti-γ2 or anti-al subunit antibody. In the lower panel, the protein from total lysates of cortex was analyzed by SDS-PAGE and immunoblotted with anti-γ2 subunit antibody. LC is the loading control GAPDH in the blots. FIG. 14B charts the protein IDVs of surface wild-type γ2 or al subunits (upper panel) or total level wild-type γ2 subunits (lower panel) were normalized to its loading control and then to that in untreated wild-type mice which was arbitrarily taken as 1.

[3] = Hepatic microsomal clearance (human); assay type: in vitro ADME; conditions: liver microsomes, pH 7.4
Protocol: Intrinsic clearance and predicted hepatic clearance: Intrinsic clearance will be determined using the substrate depletion approach. Reactions (0.3 mL) will be conducted using a Tecan EVO (San Jose, Calif.) in 96-well polypropylene cluster tubes with a temperature controlled water-jacketed aluminum plate holder held at 37° C. Incubations will be performed in triplicate in 0.1 M potassium phosphate buffer (pH 7.4), 3 mM MgCl2, 1 μM tizanidine, and 1 mg/mL liver microsomes. After incubation mixtures are equilibrated for 3 min at 37° C., reactions will be initiated with 10 mM NADPH to give a final NADPH concentration of 1 mM. At 0, 3, 7, 15, 25, and 45 min, a 25 μL aliquot will be removed from the reactions and delivered into 125 μL of acetonitrile containing an internal standard. The quench plates will then be centrifuged at 3,000×g for 10 min and an aliquot of the supernatants added to an injection plate with an equal volume of water. Samples will then be analyzed using LC/MS/MS.
Intrinsic clearance is calculated as: […]
Species-specific parameters for mouse and human liver protein content will be used. The predicted hepatic clearance will then be estimated using species-specific liver blood flow values: […]

[4] = target: T2, GABAA α1β2γ2(Q390X) receptors (Homo sapiens, UniProt P14867+P18507+P47870, DEL390-467); experiment: Patch clamp current amplitude, α1β2γ2(Q390X) receptors in HEK 293T cells; assay type: cell-based; conditions: 1 μm, 4 hrs; GABA 1 mM
T2 construct: expressed in transfected cells; host or cells: HEK 293T
T2 sequence (P14867 28-456, stated change not applied): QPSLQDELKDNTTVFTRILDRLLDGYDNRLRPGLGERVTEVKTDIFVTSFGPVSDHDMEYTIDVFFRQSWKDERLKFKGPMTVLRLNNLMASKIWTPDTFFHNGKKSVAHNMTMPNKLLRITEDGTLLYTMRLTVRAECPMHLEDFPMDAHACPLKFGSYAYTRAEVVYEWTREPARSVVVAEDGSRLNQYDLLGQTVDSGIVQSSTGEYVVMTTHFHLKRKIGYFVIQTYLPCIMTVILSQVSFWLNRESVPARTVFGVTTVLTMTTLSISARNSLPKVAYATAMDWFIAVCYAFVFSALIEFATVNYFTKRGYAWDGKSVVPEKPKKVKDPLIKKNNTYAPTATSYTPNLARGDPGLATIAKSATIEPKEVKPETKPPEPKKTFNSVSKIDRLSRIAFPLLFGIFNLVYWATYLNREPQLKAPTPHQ
T2 sequence (P47870 26-512, stated change not applied): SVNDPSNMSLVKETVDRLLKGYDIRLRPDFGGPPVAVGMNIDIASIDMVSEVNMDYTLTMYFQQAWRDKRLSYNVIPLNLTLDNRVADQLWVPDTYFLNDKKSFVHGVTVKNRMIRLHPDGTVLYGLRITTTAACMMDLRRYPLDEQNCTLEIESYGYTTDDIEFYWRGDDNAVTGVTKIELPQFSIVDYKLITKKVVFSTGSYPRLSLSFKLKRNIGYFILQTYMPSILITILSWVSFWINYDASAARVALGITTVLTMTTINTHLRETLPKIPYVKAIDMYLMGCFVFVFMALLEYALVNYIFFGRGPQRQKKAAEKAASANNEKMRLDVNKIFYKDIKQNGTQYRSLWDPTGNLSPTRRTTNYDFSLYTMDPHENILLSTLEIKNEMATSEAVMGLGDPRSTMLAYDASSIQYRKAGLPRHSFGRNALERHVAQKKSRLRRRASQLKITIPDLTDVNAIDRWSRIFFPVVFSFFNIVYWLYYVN
T2 sequence (P18507 40-389 isoform P18507-1 limits assumed, stated change not applied): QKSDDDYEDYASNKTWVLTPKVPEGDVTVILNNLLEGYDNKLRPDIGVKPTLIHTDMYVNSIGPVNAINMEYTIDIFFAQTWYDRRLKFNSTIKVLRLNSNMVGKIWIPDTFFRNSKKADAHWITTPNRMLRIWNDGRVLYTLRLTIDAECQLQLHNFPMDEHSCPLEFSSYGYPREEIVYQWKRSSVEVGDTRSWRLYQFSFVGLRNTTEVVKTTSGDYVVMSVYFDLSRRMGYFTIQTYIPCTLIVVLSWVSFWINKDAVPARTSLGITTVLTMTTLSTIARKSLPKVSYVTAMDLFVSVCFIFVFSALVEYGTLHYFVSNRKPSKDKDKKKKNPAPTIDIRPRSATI
Protocol: as §1, §2

seizure activity = experiment: Oral gavage for 2 weeks, seizure threshold and seizure activity; assay type: in vivo, mice; conditions: oral gavage 3 mg/kg for 2 weeks
Gabrg2^+/Q390X mice = experiment: Early intermittent dosing, survival of Gabrg2+/Q390X mice; assay type: in vivo, mouse; conditions: 0.3 mg/kg intermittent from postnatal day 7; untreated ~25% mortality
Text: (FIG. 5B, C). Gabrg2^+/Q390X mice in C57/BL/6J background had ˜25% of mortality (B) while Scn1a^+/− mice in C57/BL/6J background had ˜60% of mortality by week 7 (C). […] The Gabrg2^+/Q390X mice were in C57/BL/6J background while Scn1a^+/− sires were from mixed S129/C57BL/6J and the dams were congenic C57/BL/6J. For each mouse model, heterozygous pups of both male and female from 6-8 litters were included.

[5] = In vivo exposure (IV and PO) in rat
PI3K/AKT pathway = PI3K/AKT pathway activation in vitro; assay type: cell-based
AKT, active caspase 3 = experiment: P-AKT immunoblot and active caspase 3 staining in cells and Gabrg2+/Q390X mice; set-up: species or system mouse
Protocol: Total lysates from HEK 293T cells expressing the wild-type (wt) or the mutant α1β2γ2(Q390X) (mut) receptors (FIG. 17A) or from Gabrg2^+/Q390X mouse cortex (17B) were analyzed by SDS-PAGE. The membranes were immunoblotted with the phosphorylated AKT (P-AKT). FIG. 17C. Paraffin-embedded brain sections from 1 year old wild-type (wt) and heterozygous Gabrg2^+/Q390X (het) mice were stained with the active form of caspase 3 (green) and NeuN (red). The cell nuclei were stained with TO-PRO-3 (blue).

CYP 2C8 = CYP 2C8 (Homo sapiens, UniProt P10632); experiment: biochemical
Chain of CYP 2C8 (P10632 whole entry): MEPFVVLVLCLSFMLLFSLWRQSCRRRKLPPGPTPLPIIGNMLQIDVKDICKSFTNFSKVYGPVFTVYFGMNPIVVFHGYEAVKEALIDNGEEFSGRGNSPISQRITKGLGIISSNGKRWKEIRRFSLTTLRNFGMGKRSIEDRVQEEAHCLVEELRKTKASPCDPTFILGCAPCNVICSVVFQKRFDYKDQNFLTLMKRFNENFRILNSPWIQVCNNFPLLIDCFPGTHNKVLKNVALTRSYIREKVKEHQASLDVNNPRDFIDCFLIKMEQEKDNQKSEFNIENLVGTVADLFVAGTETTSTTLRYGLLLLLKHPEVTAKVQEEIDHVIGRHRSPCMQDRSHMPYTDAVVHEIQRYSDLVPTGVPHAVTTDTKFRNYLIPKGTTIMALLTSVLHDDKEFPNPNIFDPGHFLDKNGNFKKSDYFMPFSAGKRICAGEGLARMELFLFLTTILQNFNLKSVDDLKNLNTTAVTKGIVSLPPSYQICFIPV

[6] = system: cultured cortical neurons from the wild-type mouse brains; experiment: Neuronal viability, trypan blue exclusion; assay type: cell-based; conditions: 0-8 μm for 4 hours, at the therapeutic levels
Protocol: The neuronal viability was determined with membrane integrity by trypan blue exclusion method^12. The mean survival was determined by counting eight randomly selected, non-overlapping fields with each containing approximately 10-20 neurons (viable+nonviable) (n=4 different cultures). GABAAR expression was determined by the high-throughput flow cytometry. HEK 293T cells were transfected with human α1, β2 and γ2 subunit cDNAs at 1:1:1 ratio for 48 hours. The α1 subunit was chosen as readout. The anti-α1 antibody was directly conjugated with Alexa 488 (data are mean±SEM, n=4). The healthy population was gated.

[7] = 3 litters with 6-8 grossly normal pups

T1 sequence (P14867 28-456): as the sequence (P14867 28-456, stated change not applied) above
T1 sequence (P47870 25-512 limits assumed): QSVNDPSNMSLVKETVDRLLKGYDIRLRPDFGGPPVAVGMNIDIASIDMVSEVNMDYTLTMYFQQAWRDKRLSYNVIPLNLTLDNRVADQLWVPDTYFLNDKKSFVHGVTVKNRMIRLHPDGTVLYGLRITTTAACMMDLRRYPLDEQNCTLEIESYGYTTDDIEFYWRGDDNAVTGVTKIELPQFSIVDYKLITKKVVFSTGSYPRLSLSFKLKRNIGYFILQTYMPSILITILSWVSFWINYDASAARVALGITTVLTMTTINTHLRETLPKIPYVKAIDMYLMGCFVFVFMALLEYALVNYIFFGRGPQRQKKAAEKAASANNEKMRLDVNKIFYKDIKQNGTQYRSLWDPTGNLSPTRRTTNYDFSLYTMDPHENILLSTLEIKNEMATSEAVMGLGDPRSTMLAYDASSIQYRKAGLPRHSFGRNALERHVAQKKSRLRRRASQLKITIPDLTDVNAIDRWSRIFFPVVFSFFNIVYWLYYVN
T1 sequence (P18507 40-467 isoform P18507-1 R82Q limits assumed): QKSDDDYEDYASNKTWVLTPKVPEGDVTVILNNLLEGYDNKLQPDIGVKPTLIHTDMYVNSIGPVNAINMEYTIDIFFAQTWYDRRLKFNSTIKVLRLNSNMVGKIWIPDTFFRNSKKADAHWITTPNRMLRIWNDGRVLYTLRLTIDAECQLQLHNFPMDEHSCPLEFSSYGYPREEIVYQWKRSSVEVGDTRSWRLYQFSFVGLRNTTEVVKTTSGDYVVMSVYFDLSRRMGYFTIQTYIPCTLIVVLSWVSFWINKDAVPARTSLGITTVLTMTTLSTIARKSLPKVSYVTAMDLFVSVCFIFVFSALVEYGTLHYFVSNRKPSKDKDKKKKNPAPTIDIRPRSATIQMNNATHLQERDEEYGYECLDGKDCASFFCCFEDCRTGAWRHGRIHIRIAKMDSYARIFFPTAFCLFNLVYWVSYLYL

CC1=C(O)C(=O)C=C2C1=CC=C1[C@@]2(C)CC[C@@]2(C)[C@@H]3C[C@](C)(C(=O)O)CC[C@]3(C)CC[C@]12C [Celastrol, 3-Hydroxy-9β,13α-dimethyl-2-oxo-24,25,26-trinoroleana-1(10),3,5,7-tetraen-29-oic acid]
current amplitude [1]: increased | fertility (Scn1a^+/− mouse; [7]): normal fertility | teratogenicity (Scn1a^+/− mouse; [7]): no teratogenicity | HE staining of liver, kidney and heart (Scn1a^+/− mouse; chronic intermittent dosing): Normal cell numbers, morphology and viability | HE staining of lung, spleen, intestine, testis, leg muscle and skin (Scn1a^+/− mouse; chronic intermittent dosing): no abnormalities were identified | blood counts (Scn1a^+/− mouse; chronic intermittent dosing): normal blood counts | organ function, total protein and metabolics (Scn1a^+/− mouse; chronic intermittent dosing): normal function of liver, heart and kidney and normal total protein and metabolics | cortex and hippocampus neuronal survival (Scn1a^+/− mouse; eight-month old male, chronic intermittent dosing): normal | surface and total α1 and γ2 subunits ([2]; 0.3 mg/kg IP for 14 days, n=4 mice): increase of both the surface and total α1 and γ2 subunits were greater in the mutant mice than in the wildtype | increase of surface γ2 subunits compared with mutant mice treated with vehicle ([2]; 0.3 mg/kg, ip): 40-50% | CLint scaled [3]: 31 mL/min/kg | current amplitude [4]: increased | seizure threshold and seizure activity (seizure activity): increasing seizure threshold and reducing seizure activity | survival (Gabrg2^+/Q390X mice): completely rescued the survival | half-life [5]: 10 h | bioavailability ([5]; po): 7.8% | PI3K/AKT pathway (PI3K/AKT pathway): activate PI3K/AKT pathway | active caspase 3 (AKT, active caspase 3; 0.3 mg/kg IP 2 weeks): Reducing Active Caspase 3 | AKT (P-AKT) (AKT, active caspase 3; 0.3 mg/kg IP 2 weeks in mice, HEK 293T cells): Activating AKT | IC50 (CYP 2C8): 2190 nM | cell viability [6]: no reduced cell viability
